From PubChem BioAssay (NCI)
“And” between values parts separate entries of the source, which are not always exact repeats. Identical values can stand only once.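 Dose response: 5 concentrations. Exposure: 48 h. Format: 96-well plates. Endpoint: linear interpolation; highest concentration if not reached. GI50 = concentration required for 50% inhibition of growth. Definition used: TGI = concentration required for complete inhibition of growth.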

Experiments:
Test in all cases: NCI-60 cell line screen, 48 h
HCC-2998 colon = tested on: HCC-2998 colon
SK-OV-3 ovarian = tested on: SK-OV-3 ovarian
SW-620 colon = tested on: SW-620 colon
PC-3 prostate = tested on: PC-3 prostate
ACHN renal = tested on: ACHN renal
SK-MEL-2 melanoma = tested on: SK-MEL-2 melanoma
SR leukemia = tested on: SR leukemia
BT-549 breast = tested on: BT-549 breast
NCI-H23 lung = tested on: NCI-H23 lung
SF-539 CNS = tested on: SF-539 CNS

Compound | TGI (HCC-2998 colon) | TGI (SK-OV-3 ovarian) | TGI (SW-620 colon) | TGI (PC-3 prostate) | TGI (ACHN renal) | TGI (SK-MEL-2 melanoma) | TGI (SR leukemia) | TGI (BT-549 breast) | TGI (NCI-H23 lung) | TGI (SF-539 CNS) | GI50 (HCC-2998 colon) | GI50 (SK-OV-3 ovarian) | GI50 (SW-620 colon) | GI50 (PC-3 prostate) | GI50 (ACHN renal) | GI50 (SK-MEL-2 melanoma) | GI50 (BT-549 breast) | GI50 (NCI-H23 lung) | GI50 (SF-539 CNS) | GI50 (SR leukemia)
Cc1ccc(C(=O)Nc2ccc(S(=O)(=O)O)c3cc(S(=O)(=O)O)cc(S(=O)(=O)O)c23)cc1NC(=O)c1cccc(N)c1 | > 100 µM | > 100 µM | > 100 µM | > 100 µM | > 100 µM | > 100 µM | > 100 µM | > 100 µM | > 100 µM | > 100 µM | – | – | – | – | – | – | – | – | – | –
CC1=CC(=O)c2c(O)cccc2C1=O | 4.12 µM | 27.2 µM | 4.15 µM | 4.75 µM | 3.01 µM | 3.72 µM | 4.95 µM | 3.15 µM | 3.47 µM | 3.92 µM | – | – | – | – | – | – | – | – | – | –
O=C(Nc1cccc(Cl)c1)Nc1ncc(CCNc2ncnc3ccsc23)s1 | 25.6 µM and > 10 µM | 24.1 µM and > 10 µM | 65.3 µM and > 10 µM | 13.8 µM and > 10 µM | 16.8 µM and > 10 µM | 10.8 µM and 6.26 µM | 20.8 µM and > 10 µM | 11.8 µM and 7.75 µM | 20.1 µM and > 10 µM | 16.9 µM and > 10 µM | 9.38 µM and > 10 µM | 9.12 µM and 4.86 µM | 14.5 µM and > 10 µM | 1.05 µM and 1.92 µM | 2.3 µM and 2.06 µM | 2.88 µM and 1.76 µM | 2.07 µM and 1.68 µM | 2.08 µM and 2.49 µM | 0.635 µM and 0.53 µM | –
CCc1ccc(NCc2cc(OC)c(OC)c(OC)c2)cc1 | 11 µM and 12.1 µM | 9.02 µM and 16.9 µM | > 100 µM | 53 µM and 18.7 µM | 66.7 µM and 77.4 µM | 23.9 µM and > 54 µM | 44.6 µM and > 100 µM | > 100 µM and 34.8 µM | 24.8 µM and 15.1 µM | 1.02 µM and 0.814 µM | – | 0.315 µM and 0.152 µM | 0.0871 µM and 0.0541 µM | – | – | 0.255 µM and 0.106 µM | – | – | 0.296 µM and 0.107 µM | –
CC1=C(C(=O)OCc2ccccc2)C(c2ccc3c(c2)OCO3)n2c(nc3ccccc32)N1 (stereo unspecified) | > 100 µM | > 100 µM | > 100 µM | > 100 µM | > 100 µM | > 100 µM | > 100 µM | > 100 µM | > 100 µM | > 100 µM | > 33.2 µM | 0.467 µM | 0.346 µM | 0.458 µM | 0.63 µM | – | – | > 56.4 µM | 0.34 µM | 0.4 µM
CCN1C(=O)N(CC)C2C1NN=c1s/c(=C3\C(=O)N(C(C)C)c4ccccc43)c(=O)n12 (stereo unspecified) | > 20.8 µM | 12.1 µM | > 100 µM | > 100 µM | > 42.2 µM | > 49.7 µM | > 100 µM | 66.4 µM | 30.5 µM | 0.706 µM | 0.357 µM | 0.403 µM | 0.417 µM | 0.412 µM | 0.525 µM | 1.24 µM | 1.38 µM | 0.421 µM | 0.24 µM | 0.426 µM
NC(=O)[C@H]1CCN(c2ncnc(N)c2F)C[C@@H]1N1CCC[C@@H](Nc2cc(Cl)cc(C(F)(F)F)c2)C1=O | 36.3 µM | 56.3 µM | > 100 µM | > 100 µM | 76.3 µM | 41.5 µM | 83.8 µM | 51.1 µM | 65.8 µM | 33.2 µM | 14.6 µM | 6.33 µM | 25.6 µM | 17.7 µM | 7 µM | 19 µM | 21.4 µM | 20.8 µM | 14.5 µM | 28.1 µM
CCCN(Cc1ccc(F)cc1)c1ccc(CO)c(Cl)c1 | 22.5 µM | 19 µM | 15.6 µM | 24.6 µM | 22.8 µM | 13.3 µM | 35.4 µM | 25.6 µM | 20.2 µM | 29 µM | 8.9 µM | 6.31 µM | 1.07 µM | 11.6 µM | 9.98 µM | 2.99 µM | 11.7 µM | 4.24 µM | 15.3 µM | 13.6 µM
N#Cc1ncc(/N=C/c2ccc(N(CCCl)CCCl)cc2)s1 | > 100 µM | > 100 µM | > 100 µM | > 100 µM | 41.6 µM | > 100 µM | > 100 µM | > 100 µM | > 100 µM | > 100 µM | 23.9 µM | 27.7 µM | 9.69 µM | 34.9 µM | 5.13 µM | 69.9 µM | 29.6 µM | 5.53 µM | 16.8 µM | 0.543 µM
